From ChEMBL document CHEMBL1201862, “PubChem BioAssay data set” (2004)
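Where inhibition never reached the appropriate level, the endpoint shown equals the highest concentration tested. Otherwise, values were interpolated linearly from a five-concentration, 48-hour dose response in 96-well plates. GI50 = concentration required for 50% inhibition of growth.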 Activity calls are given as the source filed them. Rule as the data show it: active = GI50 up to about 1.1 µM and inactive = higher.

How the values were obtained:
Experiment in all cases: NCI-60 cell line screen, 48 h
A498 = tested on: A498
ACHN = tested on: ACHN
HCC 2998 = tested on: HCC 2998
HT-29 = tested on: HT-29
K562 = tested on: K562
KM12 = tested on: KM12
MOLT-4 = tested on: MOLT-4
NCI-H226 = tested on: NCI-H226
NCI-H23 = tested on: NCI-H23
SK-MEL-2 = tested on: SK-MEL-2
SK-OV-3 = tested on: SK-OV-3
SN12C = tested on: SN12C
SNB-19 = tested on: SNB-19
UACC-257 = tested on: UACC-257
CAKI-1 = tested on: CAKI-1

Measured: GI50

COC(=O)c1ccc(/N=N/N(C)CO)cc1
inactive: A498 51.8 µM | ACHN 80.2 µM | HCC 2998 > 100 µM | HT-29 > 100 µM | K562 68.4 µM | KM12 > 100 µM | MOLT-4 > 100 µM | NCI-H226 > 100 µM | NCI-H23 > 100 µM | SK-MEL-2 > 100 µM | SK-OV-3 40.5 µM | SN12C > 100 µM | SNB-19 86.5 µM | UACC-257 > 100 µM

O=C1c2ccccc2CC1C1(O)C(=O)Nc2c(Cl)cc(Cl)cc21 (stereo unspecified)
inactive: ACHN 64 µM | CAKI-1 > 100 µM | HCC 2998 > 100 µM | HT-29 67.8 µM | K562 30.8 µM | KM12 47.2 µM | MOLT-4 30.5 µM | NCI-H226 44.2 µM | NCI-H23 24.9 µM | SK-MEL-2 97.5 µM | SK-OV-3 > 100 µM | SN12C > 100 µM | SNB-19 37.1 µM | UACC-257 27 µM

Cc1cccc2c1Oc1cc(Cl)ccc1C2NC(=O)CN(C)C (stereo unspecified)
inactive: ACHN 22.8 µM | HCC 2998 34.8 µM | HT-29 36.6 µM | K562 36 µM | MOLT-4 29.2 µM | NCI-H226 99.8 µM | NCI-H23 92 µM | SK-OV-3 73.8 µM | SN12C 63.1 µM | SNB-19 54 µM | UACC-257 31.6 µM

O=c1[nH]cc(COCC(F)(F)C(F)(F)C(F)(F)C(F)F)c(=O)[nH]1
inactive: ACHN > 100 µM | CAKI-1 > 100 µM | HCC 2998 > 100 µM | HT-29 > 100 µM | K562 > 100 µM | KM12 > 100 µM | MOLT-4 > 100 µM | NCI-H23 > 100 µM | SK-MEL-2 > 100 µM | SK-OV-3 > 100 µM | SN12C > 100 µM | SNB-19 > 100 µM | UACC-257 > 100 µM

CCC(COC(=O)CC[C@@H](NC(=O)C(C)NC(=O)C(C)OC1C(O)C(CO)OC(OCc2ccccc2)C1NC(C)=O)C(N)=O)NC1c2ccccc2Nc2cccc([N+](=O)[O-])c21 (stereo partly specified)
inactive: ACHN > 100 µM | CAKI-1 > 100 µM | HCC 2998 > 100 µM | HT-29 > 100 µM | K562 > 100 µM | KM12 > 100 µM | MOLT-4 > 100 µM | NCI-H226 > 100 µM | NCI-H23 > 100 µM | SK-MEL-2 > 100 µM | SK-OV-3 > 100 µM | SN12C > 100 µM | SNB-19 > 100 µM | UACC-257 > 100 µM

CC(O)/C=C/C(CCC(C)CO)C(C)C (stereo unspecified)
inactive: A498 > 100 µM | ACHN > 100 µM | CAKI-1 > 100 µM | HCC 2998 > 100 µM | HT-29 > 100 µM | K562 > 100 µM | KM12 > 100 µM | MOLT-4 > 100 µM | NCI-H23 > 100 µM | SK-MEL-2 > 100 µM | SK-OV-3 > 100 µM | SN12C > 100 µM | SNB-19 > 100 µM | UACC-257 > 100 µM

O=C1C(Cl)N(c2cccc([N+](=O)[O-])c2)C1c1c[nH]c2ccccc12 (stereo unspecified)
inactive: HT-29 17.1 µM | K562 19 µM | KM12 20.2 µM | MOLT-4 8.38 µM | NCI-H23 22.2 µM | SK-MEL-2 14.4 µM | SK-OV-3 11.1 µM | SN12C 28.6 µM | SNB-19 23.9 µM | UACC-257 20.7 µM

COc1cccc(NC(=O)CC(=O)n2nc(C)c(/N=N/c3ccccc3)c2C)c1
inactive: A498 76 µM | ACHN > 100 µM | CAKI-1 > 100 µM | HCC 2998 > 100 µM | HT-29 > 100 µM | KM12 > 100 µM | MOLT-4 69.2 µM | NCI-H226 28.5 µM | NCI-H23 > 100 µM | SK-OV-3 > 100 µM | SN12C > 100 µM | SNB-19 > 100 µM | UACC-257 > 100 µM

O=C1NP23(OCCO2)Oc2ccccc2C3(C(F)(F)F)O1 (stereo unspecified)
inactive: ACHN > 100 µM | HT-29 > 100 µM | K562 > 100 µM | KM12 > 100 µM | MOLT-4 > 100 µM | NCI-H226 > 100 µM | NCI-H23 > 100 µM | SK-MEL-2 > 100 µM | SK-OV-3 > 100 µM | SN12C > 100 µM | SNB-19 > 100 µM | UACC-257 > 100 µM

COC(=O)C12CC(c3ccccc31)C1C(=O)OC(=O)C12 (stereo unspecified)
inactive: ACHN > 100 µM | HCC 2998 > 100 µM | HT-29 > 100 µM | K562 > 100 µM | KM12 > 100 µM | MOLT-4 > 100 µM | NCI-H23 > 100 µM | SK-MEL-2 > 100 µM | SN12C > 100 µM | SNB-19 > 100 µM | UACC-257 > 100 µM
